Experiments:
[1] = Hygroscopicity (statement only); format: physicochemical
[2] = Solubility (statement only); format: physicochemical
[3] = Stability towards moisture and humidity (statement only); format: physicochemical
[4] = Chemical stability on storage (temperature and relative humidity)
Text: Conditions evaluated include temperature and relative humidity (RH).

[5] = 25 ± 2° C./60 ± 5% RH, 0 months
[6] = 25 ± 2° C./60 ± 5% RH, 2 months
[7] = 25 ± 2° C./60 ± 5% RH, 3 months

Question: With Nilotinib D-malate as the substance, how does the hygroscopicity [1] read?
Answer: Its hygroscopicity is “not hygroscopic”.

Question: What about the “solubility in physiologically acceptable solvents” value [2] of the same substance?
Answer: The value was “readily soluble”.

Question: What about the “stability towards moisture and humidity” value [3] of the same substance?
Answer: The value was “relatively stable”.

Question: With Nilotinib D-tartrate as the substance, how does the hygroscopicity [1] read?
Answer: Its hygroscopicity is “not hygroscopic”.

Question: What about the “stability towards moisture and humidity” value [3] of the same substance?
Answer: The value was “relatively stable”.

Question: What about the “5- methyl isomer impurity (NMT 3 ppm)” value ([4]; 2 to 8° C., 0 months) of the same substance?
Answer: The value was 0.6 ppm.

Question: What about the “Total impurities (NMT 0.4%)” value ([4]; 2 to 8° C., 0 months) of the same substance?
Answer: Its value is 0.01%.

Question: What about the XRPD ([4]; 2 to 8° C., 0 months) of the same substance?
Answer: The XRPD was “Form C1”.

Question: What about the “5- methyl isomer impurity (NMT 3 ppm)” value ([4]; 2 to 8° C., 1 month) of the same substance?
Answer: Its value is 0.5 ppm.

Question: What about the XRPD ([4]; 2 to 8° C., 1 month) of the same substance?
Answer: Its XRPD is “Stable”.

Question: And the “5- methyl isomer impurity (NMT 3 ppm)” value ([4]; 2 to 8° C., 2 months)?
Answer: Its value is 0.7 ppm.

Question: And the XRPD ([4]; 2 to 8° C., 2 months)?
Answer: The XRPD was “Stable”.

Question: What about the “5- methyl isomer impurity (NMT 3 ppm)” value ([4]; 2 to 8° C., 3 months) of the same substance?
Answer: Its value is 1.1 ppm.

Question: What about the “Total impurities (NMT 0.4%)” value ([4]; 2 to 8° C., 3 months) of the same substance?
Answer: The value was 0.05%.

Question: And the XRPD ([4]; 2 to 8° C., 3 months)?
Answer: Its XRPD is “Stable”.

Question: What about the “5- methyl isomer impurity (NMT 3 ppm)” value [4, 5] of the same substance?
Answer: The value was 0.6 ppm.

Question: What about the “Total impurities (NMT 0.4%)” value [4, 5] of the same substance?
Answer: The value was 0.01%.

Question: And the XRPD [4, 5]?
Answer: Its XRPD is “Form C1”.

Question: What about the “5- methyl isomer impurity (NMT 3 ppm)” value ([4]; 25 ± 2° C./60 ± 5% RH, 1 month) of the same substance?
Answer: The value was 0.5 ppm.

Question: And the XRPD ([4]; 25 ± 2° C./60 ± 5% RH, 1 month)?
Answer: The XRPD was “Stable”.

Question: And the “5- methyl isomer impurity (NMT 3 ppm)” value [4, 6]?
Answer: The value was 0.7 ppm.

Question: What about the XRPD [4, 6] of the same substance?
Answer: The XRPD was “Stable”.

Question: And the “5- methyl isomer impurity (NMT 3 ppm)” value [4, 7]?
Answer: The value was 1.1 ppm.

Question: And the “Total impurities (NMT 0.4%)” value [4, 7]?
Answer: The value was 0.04%.

Question: What about the XRPD [4, 7] of the same substance?
Answer: Its XRPD is “Stable”.

Question: What about the “chemical stability / long term storage stability” value ([4]; temperature and relative humidity (RH)) of the same substance?
Answer: Its value is “chemically more stable”.
